Where a name gives a salt, the structure may show the parent alone.
Target: T1, human FPTase (Homo sapiens, UniProt P49354+P49356)
T1 construct: made in house
Test: In vitro inhibition of ras farnesyl transferase (human FPTase assay)
Format: biochemical
Conditions: 100 nM Ras-CVIM, [3H]-farnesyl diphosphate, 30 min, read-out: IC50, inhibitory activity against human FPTase

T1 sequence (P49356 whole entry, one chain of several): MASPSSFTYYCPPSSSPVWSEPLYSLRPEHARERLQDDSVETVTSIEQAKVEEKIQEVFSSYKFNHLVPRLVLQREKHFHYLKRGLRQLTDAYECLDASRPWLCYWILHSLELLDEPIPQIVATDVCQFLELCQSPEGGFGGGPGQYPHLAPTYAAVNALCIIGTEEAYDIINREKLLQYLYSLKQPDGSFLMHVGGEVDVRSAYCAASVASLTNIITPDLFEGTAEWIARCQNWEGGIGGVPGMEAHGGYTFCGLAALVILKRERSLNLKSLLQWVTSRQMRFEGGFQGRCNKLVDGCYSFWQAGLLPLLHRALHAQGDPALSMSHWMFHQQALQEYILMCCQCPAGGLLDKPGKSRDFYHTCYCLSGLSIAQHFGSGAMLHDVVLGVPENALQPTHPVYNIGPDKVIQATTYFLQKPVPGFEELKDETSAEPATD

Question: With CCCC[C@H]1CN(CC(F)(F)F)C(=O)CN1Cc1cncn1Cc1ccc(C#N)cc1 [Example 1, 2(S)-n-Butyl-1-[1-(4-cyanobenzyl)-5-imidazolylmethyl]-4-(2,2,2-trifluoroethyl)piperazin-5-one dihydrochloride] as the compound, how does the IC50 read?
Answer: Its IC50 is at most 50 µM.

Reference: patent US5972942A, “Inhibitors of farnesyl-protein transferase” (Merck & Co., Inc., priority 1997, dated 1999)
